Results reported in patent US9556179B2 (BRISTOL-MYERS SQUIBB COMPANY, priority 2012, dated 2017).

Columns and labels:
CK1ε = CK1ε (Homo sapiens (Human), UniProt P49674); assay: CK1ε kinase assay (Caliper LABCHIP electrophoretic separation of fluoresceinated peptide substrate and product); format: biochemical; details: 200 pM enzyme, 50 μM ATP, 22 hours at room temperature
In short: (§1)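 Compounds, taken from 10 mM DMSO stocks, are titrated at eleven concentrations. Kinase reactions proceed for 22 hours at room temperature and are quenched with EDTA. Substrate and product are resolved electrophoretically, and IC50 values are fitted by non-linear regression.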

CK1δ = CK1δ (Homo sapiens (Human), UniProt P48730); assay: CK1δ kinase assay (Caliper LABCHIP electrophoretic separation of fluoresceinated peptide substrate and product); format: biochemical; details: 200 pM enzyme, 50 μM ATP, 22 hours at room temperature
In short: as §1

CK1ε, sequence (P49674 whole entry): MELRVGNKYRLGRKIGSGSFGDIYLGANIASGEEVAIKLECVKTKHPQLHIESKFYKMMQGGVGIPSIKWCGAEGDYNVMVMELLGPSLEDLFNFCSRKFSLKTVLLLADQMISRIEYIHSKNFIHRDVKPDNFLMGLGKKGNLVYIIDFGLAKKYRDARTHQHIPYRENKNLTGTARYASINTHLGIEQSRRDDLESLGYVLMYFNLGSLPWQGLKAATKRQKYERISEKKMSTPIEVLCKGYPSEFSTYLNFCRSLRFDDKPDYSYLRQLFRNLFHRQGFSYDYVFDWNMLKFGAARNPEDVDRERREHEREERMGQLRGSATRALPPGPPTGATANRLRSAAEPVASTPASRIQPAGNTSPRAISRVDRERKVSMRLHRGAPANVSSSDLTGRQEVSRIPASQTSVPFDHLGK
CK1δ, sequence (P48730 whole entry): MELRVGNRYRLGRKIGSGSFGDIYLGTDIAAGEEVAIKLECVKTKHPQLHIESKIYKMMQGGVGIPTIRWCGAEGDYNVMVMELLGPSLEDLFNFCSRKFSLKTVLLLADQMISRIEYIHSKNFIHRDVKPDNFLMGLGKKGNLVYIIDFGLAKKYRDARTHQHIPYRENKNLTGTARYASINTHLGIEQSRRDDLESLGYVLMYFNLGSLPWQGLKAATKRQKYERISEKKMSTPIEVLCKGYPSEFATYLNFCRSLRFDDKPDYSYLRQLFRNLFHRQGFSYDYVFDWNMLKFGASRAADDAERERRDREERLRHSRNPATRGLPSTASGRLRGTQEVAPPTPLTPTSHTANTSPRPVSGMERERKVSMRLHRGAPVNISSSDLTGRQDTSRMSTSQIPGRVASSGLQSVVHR

| Structure (SMILES) | IC50 (CK1ε) [pM] | IC50 (CK1δ) [pM] |
| --- | --- | --- |
| NC(=O)CN1CCC(n2cnc(-c3ccc(F)cc3)c2-c2ccc3nc(NC(=O)c4cc(F)nc(F)c4)cn3n2)CC1 [Compound 89, N-(6-(1-(1-(2-amino-2-oxoethyl)piperidin-4-yl)-4-(4-fluorophenyl)-1H-imidazol-5-yl)imidazo[1,2-b]pyridazin-2-yl)-2,6-difluoroisonicotinamide] | 1100 | 146 |
| O=C(Nc1cn2nc(-c3c(-c4ccc(F)cc4)ncn3C3CCN(C[C@@H](O)C(F)(F)F)CC3)ccc2n1)c1cc(F)nc(F)c1 [Compound 90, (R)-2,6-difluoro-N-(6-(4-(4-fluorophenyl)-1-(1-(3,3,3-trifluoro-2-hydroxypropyl)piperidin-4-yl)-1H-imidazol-5-yl)imidazo[1,2-b]pyridazin-2-yl)isonicotinamide] | 5680 | 650 |
| O=C(Nc1cn2nc(-c3c(-c4ccc(F)cc4)ncn3C3CCN(C[C@H](O)C(F)(F)F)CC3)ccc2n1)c1cc(F)nc(F)c1 [Compound 91, (S)-2,6-difluoro-N-(6-(4-(4-fluorophenyl)-1-(1-(3,3,3-trifluoro-2-hydroxypropyl)piperidin-4-yl)-1H-imidazol-5-yl)imidazo[1,2-b]pyridazin-2-yl)isonicotinamide] | 796 | 296 |
| O=C(Nc1cn2nc(-c3c(-c4ccc(F)cc4)ncn3C3CCN(CCC(F)(F)F)CC3)ccc2n1)c1cc(F)nc(F)c1 [Compound 92, 2,6-difluoro-N-(6-(4-(4-fluorophenyl)-1-(1-(3,3,3-trifluoropropyl)piperidin-4-yl)-1H-imidazol-5-yl)imidazo[1,2-b]pyridazin-2-yl)isonicotinamide] | 7880 | 1450 |
| O=C(Nc1cn2nc(-c3c(-c4ccc(F)cc4)ncn3C3CCN(C(=O)c4ccon4)CC3)ccc2n1)c1cc(F)nc(F)c1 [Compound 93, 2,6-difluoro-N-(6-(4-(4-fluorophenyl)-1-(1-(isoxazole-3-carbonyl)piperidin-4-yl)-1H-imidazol-5-yl)imidazo[1,2-b]pyridazin-2-yl)isonicotinamide] | 2470 | 393 |
| Cc1nc(-c2cccnc2)sc1C(=O)Nc1cn2nc(-c3c(-c4ccc(F)cc4)ncn3C3CCN(CCO)CC3)ccc2n1 [Compound 97, N-(6-(4-(4-fluorophenyl)-1-(1-(2-hydroxyethyl)piperidin-4-yl)-1H-imidazol-5-yl)imidazo [1,2-b]pyridazin-2-yl)-4-methyl-2-(pyridin-3-yl) thiazole-5-carboxamide] | 95 | 34 |
| Cc1nc(-c2cccnc2)sc1C(=O)Nc1cn2nc(-c3c(-c4ccc(F)cc4)ncn3C3CCN(CCC(F)(F)F)CC3)ccc2n1 [Compound 98, N-(6-(4-(4-fluorophenyl)-1-(1-(3,3,3-trifluoropropyl)piperidin-4-yl)-1H-imidazol-5-yl)imidazo [1,2-b]pyridazin-2-yl)-4-methyl-2-(pyridin-3-yl)thiazole-5-carboxamide] | 3880 | 268 |
| Cc1nc(-c2cccnc2)sc1C(=O)Nc1cn2nc(-c3c(-c4ccc(F)cc4)ncn3C3CCN(C[C@H](O)C(F)(F)F)CC3)ccc2n1 [Compound 99, (S)—N-(6-(4-(4-fluorophenyl)-1-(1-(3,3,3-trifluoro-2-hydroxypropyl)piperidin-4-yl)-1H-imidazol-5-yl)imidazo[1,2-b]pyridazin-2-yl)-4-methyl-2-(pyridin-3-yl)thiazole-5-carboxamide] | 1260 | 329 |
| Cc1nc(-c2cccnc2)sc1C(=O)Nc1cn2nc(-c3c(-c4ccc(F)cc4)ncn3C3CCN(CC(N)=O)CC3)ccc2n1 [Compound 100, N-(6-(1-(1-(2-amino-2-oxoethyl)piperidin-4-yl)-4-(4-fluorophenyl)-1H-imidazol-5-yl)imidazo[1,2-b]pyridazin-2-yl)-4-methyl-2-(pyridin-3-yl) thiazole-5-carboxamide] | 128 | 91 |
| Cc1nc(-c2cccnc2)sc1C(=O)Nc1cn2nc(-c3c(-c4ccc(F)cc4)ncn3C3CCN(C(=O)c4ccon4)CC3)ccc2n1 [Compound 101, N-(6-(4-(4-fluorophenyl)-1-(1-(isoxazole-3-carbonyl)piperidin-4-yl)-1H-imidazol-5-yl)imidazo[1,2-b]pyridazin-2-yl)-4-methyl-2-(pyridin-3-yl)thiazole-5-carboxamide] | 1240 | 334 |
| Cc1nc(-c2cccnc2)sc1C(=O)Nc1cn2nc(-c3c(-c4ccc(F)cc4)ncn3C3CCN(C(=O)CC(F)(F)F)CC3)ccc2n1 [Compound 102, N-(6-(4-(4-fluorophenyl)-1-(1-(3,3,3-trifluoropropanoyl)piperidin-4-yl)-1H-imidazol-5-yl)imidazo [1,2-b]pyridazin-2-yl)-4-methyl-2-(pyridin-3-yl)thiazole-5-carboxamide] | 484 | 243 |
| O=C(Nc1cn2nc(-c3c(-c4ccc(F)cc4)ncn3C3CCNCC3)ccc2n1)c1ccnc(N2CCOCC2)c1 [Compound 106, N-(6-(4-(4-fluorophenyl)-1-(piperidin-4-yl)-1H-imidazol-5-yl)imidazo[1,2-b]pyridazin-2-yl)-2-morpholinoisonicotinamide] | 3120 | 732 |
| O=C(Nc1cn2nc(-c3c(-c4ccc(F)cc4)ncn3C3CCN(CCC(F)(F)F)CC3)ccc2n1)c1ccnc(N2CCOCC2)c1 [Compound 107, N-(6-(4-(4-fluorophenyl)-1-(1-(3,3,3-trifluoropropyl)piperidin-4-yl)-1H-imidazol-5-yl)imidazo[1,2-b]pyridazin-2-yl)-2-morpholinoisonicotinamide] | 1920 | 467 |
| O=C(Nc1cn2nc(-c3c(-c4ccc(F)cc4)ncn3C3CCN(C(=O)CC(F)(F)F)CC3)ccc2n1)c1ccnc(N2CCOCC2)c1 [Compound 108, N-(6-(4-(4-fluorophenyl)-1-(1-(3,3,3-trifluoropropanoyl)piperidin-4-yl)-1H-imidazol-5-yl)imidazo[1,2-b]pyridazin-2-yl)-2-morpholinoisonicotinamide] | 3300 | 306 |
| CN1CCC(n2cnc(-c3ccc(F)cc3)c2-c2ccc3nc(NC(=O)c4ccnc5ccccc45)cn3n2)CC1 [Compound 110, N-(6-(4-(4-fluorophenyl)-1-(1-methylpiperidin-4-yl)-1H-imidazol-5-yl)imidazo[1,2-b]pyridazin-2-yl)quinoline-4-carboxamide] | 3270 | 650 |
| NC(=O)CN1CCC(n2cnc(-c3ccc(F)cc3)c2-c2ccc3nc(NC(=O)c4ccnc5ccccc45)cn3n2)CC1 [Compound 112, N-(6-(1-(1-(2-amino-2-oxoethyl)piperidin-4-yl)-4-(4-fluorophenyl)-1H-imidazol-5-yl)imidazo[1,2-b]pyridazin-2-yl)quinoline-4-carboxamide] | 886 | 494 |
| N#CCCN1CCC(n2cnc(-c3ccc(F)cc3)c2-c2ccc3nc(NC(=O)c4ccnc5ccccc45)cn3n2)CC1 [Compound 113, N-(6-(1-(1-(2-cyanoethyl)piperidin-4-yl)-4-(4-fluorophenyl)-1H-imidazol-5-yl)imidazo[1,2-b]pyridazin-2-yl)quinoline-4-carboxamide] | 1510 | 438 |
| O=C(Nc1cn2nc(-c3c(-c4ccc(F)cc4)ncn3C3CCN(CCC(F)(F)F)CC3)ccc2n1)c1cncs1 [Compound 115, N-(6-(4-(4-fluorophenyl)-1-(1-(3,3,3-trifluoropropyl)piperidin-4-yl)-1H-imidazol-5-yl)imidazo[1,2-b]pyridazin-2-yl)thiazole-5-carboxamide] | 3880 | 159 |
| O=C(Nc1cn2nc(-c3c(-c4ccc(F)cc4)ncn3C3CCN(C(=O)c4ccon4)CC3)ccc2n1)c1cncs1 [Compound 116, N-(6-(4-(4-fluorophenyl)-1-(1-(isoxazole-3-carbonyl)piperidin-4-yl)-1H-imidazol-5-yl)imidazo[1,2-b]pyridazin-2-yl)thiazole-5-carboxamide] | 372 | 173 |
| O=C(Nc1cn2nc(-c3c(-c4ccc(F)cc4)ncn3C3CCN(C(=O)CC(F)(F)F)CC3)ccc2n1)c1cncs1 [Compound 117, N-(6-(4-(4-fluorophenyl)-1-(1-(3,3,3-trifluoropropanoyl)piperidin-4-yl)-1H-imidazol-5-yl)imidazo[1,2-b]pyridazin-2-yl)thiazole-5-carboxamide] | 424 | 175 |
| O=C(Nc1cn2nc(-c3c(-c4ccc(F)cc4)ncn3C3CCN(C[C@H](O)C(F)(F)F)CC3)ccc2n1)c1cncs1 [Compound 118, (S)—N-(6-(4-(4-fluorophenyl)-1-(1-(3,3,3-trifluoro-2-hydroxypropyl)piperidin-4-yl)-1H-imidazol-5-yl)imidazo[1,2-b]pyridazin-2-yl)thiazole-5-carboxamide] | 182 | 194 |
| O=C(Nc1cn2nc(-c3c(-c4ccc(F)cc4)nc(C4CC4)n3C3CCNCC3)ccc2n1)c1ccnc(F)c1 [Compound 119, N-(6-(2-cyclopropyl-4-(4-fluorophenyl)-1-(piperidin-4-yl)-1H-imidazol-5-yl)imidazo[1,2-b]pyridazin-2-yl)-2-fluoroisonicotinamide] | 8270 | 1210 |
| COCCN1CCC(n2c(C3CC3)nc(-c3ccc(F)cc3)c2-c2ccc3nc(NC(=O)c4ccnc(F)c4)cn3n2)CC1 [Compound 120, N-(6-(2-cyclopropyl-4-(4-fluorophenyl)-1-(1-(2-methoxyethyl)piperidin-4-yl)-1H-imidazol-5-yl)imidazo[1,2-b]pyridazin-2-yl)-2-fluoroisonicotinamide] | 16700 | 1520 |
| NC(=O)CN1CCC(n2c(C3CC3)nc(-c3ccc(F)cc3)c2-c2ccc3nc(NC(=O)c4ccnc(F)c4)cn3n2)CC1 [Compound 121, N-(6-(1-(1-(2-amino-2-oxoethyl)piperidin-4-yl)-2-cyclopropyl-4-(4-fluorophenyl)-1H-imidazol-5-yl)imidazo [1,2-b]pyridazin-2-yl)-2-fluoroisonicotinamide] | 10800 | 489 |
